Source: ChEMBL document CHEMBL1148572, “1-((S)-2-aminopropyl)-1H-indazol-6-ol: a potent peripherally acting 5-HT2 receptor agonist with ocular hypotensive activity” (J Med Chem, 2006)
pEC50, pKi: −log10 of the molar value.

Columns and labels:
[1] = target: Opioid receptors; mu/kappa/delta (Homo sapiens) (UniProt P41145+P41143+P35372); assay: Inhibition of non selective binding to opiate receptor at 10 uM; format: protein assay
[2] = tested on: MDR1 (P-gp); assay: Permeability from apical to basolateral side of the MDCK cell transfected with human MDR1; format: ADME, cell-based
[3] = target: Platelet-activating factor receptor (Homo sapiens) (UniProt P25105); assay: Inhibition of PAF at 100 nM
[4] = target: T1, Adenosine receptor (Homo sapiens) (UniProt P30542+P29275+P0DMS8+P29274); assay: Inhibition of non selective binding to adenosine receptor at 1 nM; format: protein assay
[5] = target: Alpha-1A adrenergic receptor (Homo sapiens, UniProt P35348); assay: Inhibitory activity against adrenergic alpha-1A receptor
[6] = target: Glutamate receptor ionotropic kainate (Homo sapiens) (UniProt P39086+Q16478+Q16099+Q13002+Q13003); assay: Inhibition of kainate receptor at 1 nM; format: protein-complex assay
[7] = target: Adrenergic receptor beta (Homo sapiens) (UniProt P08588+P07550+P13945); assay: Inhibition of non selective binding to adrenergic beta receptor at 1 nM; format: protein assay
[8] = target: Glutamate receptor ionotropic AMPA (Homo sapiens) (UniProt P48058+P42263+P42262+P42261); assay: Inhibition of AMPA receptor at 1 nM; format: protein-complex assay
[9] = target: Protein kinase C, PKC; classical/novel (Homo sapiens) (UniProt O94806+P17252+P05129+Q05655+P05771+Q02156+P24723+Q15139+Q04759); assay: Inhibition of PDBu activated protein kinase C at 1 nM; format: protein assay
[10] = target: T2, Alpha-2A adrenergic receptor (Homo sapiens, UniProt P08913); assay: Activity at adrenergic alpha2A receptor expressed in human clonic adenocarcinoma HT29 cell by […]; format: functional, cell-based, HT-29
T2 sequence (P08913 whole entry): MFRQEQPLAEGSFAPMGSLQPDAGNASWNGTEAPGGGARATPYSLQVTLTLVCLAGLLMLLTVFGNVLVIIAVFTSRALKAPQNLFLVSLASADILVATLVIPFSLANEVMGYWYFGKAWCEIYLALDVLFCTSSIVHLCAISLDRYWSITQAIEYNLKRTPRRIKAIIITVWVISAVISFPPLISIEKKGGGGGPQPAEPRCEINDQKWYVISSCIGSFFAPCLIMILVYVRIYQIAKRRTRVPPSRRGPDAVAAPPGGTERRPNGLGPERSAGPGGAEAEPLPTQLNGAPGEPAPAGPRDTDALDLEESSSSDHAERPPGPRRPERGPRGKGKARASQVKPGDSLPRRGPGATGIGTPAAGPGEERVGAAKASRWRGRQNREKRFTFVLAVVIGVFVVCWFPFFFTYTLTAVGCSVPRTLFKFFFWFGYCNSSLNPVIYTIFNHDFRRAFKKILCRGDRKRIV

[11] = target: T3, Cysteinyl leukotriene receptor 1 (Homo sapiens) (UniProt Q9Y271); assay: Inhibition of leukotriene D4 at 100 nM
T3 sequence (whole entry): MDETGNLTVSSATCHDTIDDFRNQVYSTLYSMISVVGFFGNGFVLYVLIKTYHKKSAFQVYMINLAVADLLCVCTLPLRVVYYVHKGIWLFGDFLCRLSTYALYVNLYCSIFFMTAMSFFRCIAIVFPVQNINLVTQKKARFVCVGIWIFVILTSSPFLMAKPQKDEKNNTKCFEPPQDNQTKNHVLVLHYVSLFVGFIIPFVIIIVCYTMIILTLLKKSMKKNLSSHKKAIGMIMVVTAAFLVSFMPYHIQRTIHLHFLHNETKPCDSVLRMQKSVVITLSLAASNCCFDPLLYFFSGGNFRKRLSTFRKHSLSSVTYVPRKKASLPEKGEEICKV

[12] = target: T4, 5-hydroxytryptamine receptor 2C (Homo sapiens, UniProt P28335); assay: biochemical
T4 sequence (P28335 whole entry): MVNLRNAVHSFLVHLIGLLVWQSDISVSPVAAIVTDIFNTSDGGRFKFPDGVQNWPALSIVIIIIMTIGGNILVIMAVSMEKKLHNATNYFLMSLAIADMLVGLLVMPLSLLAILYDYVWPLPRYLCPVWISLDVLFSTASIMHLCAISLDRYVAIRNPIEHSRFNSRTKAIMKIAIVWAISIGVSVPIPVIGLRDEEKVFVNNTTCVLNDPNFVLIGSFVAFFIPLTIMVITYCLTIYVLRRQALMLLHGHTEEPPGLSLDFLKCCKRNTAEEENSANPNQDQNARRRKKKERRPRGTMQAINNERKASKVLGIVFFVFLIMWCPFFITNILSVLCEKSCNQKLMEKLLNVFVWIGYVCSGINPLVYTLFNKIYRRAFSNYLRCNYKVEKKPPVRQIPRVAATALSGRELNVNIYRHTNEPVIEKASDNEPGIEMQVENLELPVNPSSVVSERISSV
Description: Displacement of [125I]DOI from cloned human 5HT2C receptor expressed in CHO cells

[13] = target: T5, 5-hydroxytryptamine receptor 1A (Homo sapiens) (UniProt P08908); assay: Inhibition of forskolin activated adenylate cyclase at 100 nM; format: functional
T5 sequence (whole entry): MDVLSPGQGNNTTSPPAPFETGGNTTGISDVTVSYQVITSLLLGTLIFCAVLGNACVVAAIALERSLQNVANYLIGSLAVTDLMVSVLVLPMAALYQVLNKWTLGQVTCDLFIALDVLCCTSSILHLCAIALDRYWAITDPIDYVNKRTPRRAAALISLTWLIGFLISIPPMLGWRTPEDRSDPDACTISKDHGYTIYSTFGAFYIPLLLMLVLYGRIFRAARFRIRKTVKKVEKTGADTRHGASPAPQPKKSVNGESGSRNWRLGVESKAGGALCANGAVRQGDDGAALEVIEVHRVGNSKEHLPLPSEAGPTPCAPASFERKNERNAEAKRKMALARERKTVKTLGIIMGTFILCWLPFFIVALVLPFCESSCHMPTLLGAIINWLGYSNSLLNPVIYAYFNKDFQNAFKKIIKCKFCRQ

[14] = target: T1, Adenosine receptor (Homo sapiens); assay: Inhibition of non selective binding to adenosine receptor at 10 uM; format: protein assay
[15] = target: 5-hydroxytryptamine receptor 2A (Rattus norvegicus) (UniProt P14842); assay: (§1) Activity against 5HT2A mediated intracellular calcium mobilization by FLIPR in rat vascular smooth muscle cells; format: functional, cell-based
[16] = target: 5-hydroxytryptamine receptor 2A (Rattus norvegicus, UniProt P14842); assay: as §1; format: functional, cell-based
[17] = Inhibition of non selective binding to VIP at 10 uM
[18] = target: L-type calcium channel, dihydropyridine site (Homo sapiens, UniProt O60840+Q01668+Q13698+Q13936); assay: Inhibitory activity at dihydropyridine site of Calcium channel L type at 10 uM; format: protein assay
[19] = target: Sodium-dependent noradrenaline transporter (Homo sapiens, UniProt P23975); assay: Inhibition of NET at 10 uM
Sodium-dependent noradrenaline transporter, sequence (P23975 whole entry): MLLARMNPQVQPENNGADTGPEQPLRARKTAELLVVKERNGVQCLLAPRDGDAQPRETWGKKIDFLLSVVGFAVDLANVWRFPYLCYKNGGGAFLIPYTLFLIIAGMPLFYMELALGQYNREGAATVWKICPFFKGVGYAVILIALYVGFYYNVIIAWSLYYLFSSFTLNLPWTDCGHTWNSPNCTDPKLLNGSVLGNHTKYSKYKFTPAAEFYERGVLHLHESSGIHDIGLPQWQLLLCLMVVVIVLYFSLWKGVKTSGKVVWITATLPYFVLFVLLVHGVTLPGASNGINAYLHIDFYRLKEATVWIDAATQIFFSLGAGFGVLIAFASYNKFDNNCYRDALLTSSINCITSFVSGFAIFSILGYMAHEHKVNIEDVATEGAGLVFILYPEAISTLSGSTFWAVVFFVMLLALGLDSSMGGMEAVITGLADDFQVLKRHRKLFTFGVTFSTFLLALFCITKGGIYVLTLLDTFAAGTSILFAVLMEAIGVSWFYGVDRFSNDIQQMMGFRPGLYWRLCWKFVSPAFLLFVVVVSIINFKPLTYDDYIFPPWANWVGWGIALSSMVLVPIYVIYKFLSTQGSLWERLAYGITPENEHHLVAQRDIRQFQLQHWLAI

T1 sequence (P0DMS8 whole entry, looked up): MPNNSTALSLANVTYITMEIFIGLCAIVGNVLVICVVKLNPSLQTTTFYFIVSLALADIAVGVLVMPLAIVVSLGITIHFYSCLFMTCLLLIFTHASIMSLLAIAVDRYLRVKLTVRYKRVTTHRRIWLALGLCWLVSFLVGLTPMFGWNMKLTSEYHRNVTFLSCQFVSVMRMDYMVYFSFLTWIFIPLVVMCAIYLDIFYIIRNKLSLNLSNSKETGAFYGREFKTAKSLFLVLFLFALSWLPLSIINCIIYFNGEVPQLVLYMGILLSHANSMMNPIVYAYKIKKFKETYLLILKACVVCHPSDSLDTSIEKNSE
T1 sequence (P29274 whole entry, looked up): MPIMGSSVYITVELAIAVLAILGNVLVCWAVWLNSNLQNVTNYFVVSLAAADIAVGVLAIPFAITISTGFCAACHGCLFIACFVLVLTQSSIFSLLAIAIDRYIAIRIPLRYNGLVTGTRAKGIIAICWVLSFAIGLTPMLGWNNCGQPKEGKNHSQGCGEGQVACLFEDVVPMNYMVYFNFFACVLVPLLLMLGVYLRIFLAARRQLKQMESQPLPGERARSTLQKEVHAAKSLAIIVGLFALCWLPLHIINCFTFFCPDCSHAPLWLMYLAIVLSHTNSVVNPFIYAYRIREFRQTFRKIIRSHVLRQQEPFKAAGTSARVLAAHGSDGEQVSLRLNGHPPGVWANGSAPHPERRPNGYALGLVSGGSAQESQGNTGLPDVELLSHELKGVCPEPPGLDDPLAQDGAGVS
T1 sequence (P29275 whole entry, looked up): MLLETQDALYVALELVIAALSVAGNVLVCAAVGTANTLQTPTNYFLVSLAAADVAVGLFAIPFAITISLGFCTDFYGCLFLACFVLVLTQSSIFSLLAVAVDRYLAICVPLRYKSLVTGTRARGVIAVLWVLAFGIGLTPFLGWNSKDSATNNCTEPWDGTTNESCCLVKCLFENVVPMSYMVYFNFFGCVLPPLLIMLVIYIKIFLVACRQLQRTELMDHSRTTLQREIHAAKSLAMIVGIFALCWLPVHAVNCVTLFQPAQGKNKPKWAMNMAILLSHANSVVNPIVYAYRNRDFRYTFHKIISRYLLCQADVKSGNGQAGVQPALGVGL
T1 sequence (P30542 whole entry, looked up): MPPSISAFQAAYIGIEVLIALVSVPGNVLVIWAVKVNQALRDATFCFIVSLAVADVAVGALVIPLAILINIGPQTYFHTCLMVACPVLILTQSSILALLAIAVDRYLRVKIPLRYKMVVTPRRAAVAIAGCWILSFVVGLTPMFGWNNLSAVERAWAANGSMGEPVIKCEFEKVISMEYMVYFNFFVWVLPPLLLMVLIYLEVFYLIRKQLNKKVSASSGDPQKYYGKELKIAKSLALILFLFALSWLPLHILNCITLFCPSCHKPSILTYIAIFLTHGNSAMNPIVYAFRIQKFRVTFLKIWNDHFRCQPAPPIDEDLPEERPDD
Platelet-activating factor receptor (Homo sapiens), sequence (P25105 whole entry): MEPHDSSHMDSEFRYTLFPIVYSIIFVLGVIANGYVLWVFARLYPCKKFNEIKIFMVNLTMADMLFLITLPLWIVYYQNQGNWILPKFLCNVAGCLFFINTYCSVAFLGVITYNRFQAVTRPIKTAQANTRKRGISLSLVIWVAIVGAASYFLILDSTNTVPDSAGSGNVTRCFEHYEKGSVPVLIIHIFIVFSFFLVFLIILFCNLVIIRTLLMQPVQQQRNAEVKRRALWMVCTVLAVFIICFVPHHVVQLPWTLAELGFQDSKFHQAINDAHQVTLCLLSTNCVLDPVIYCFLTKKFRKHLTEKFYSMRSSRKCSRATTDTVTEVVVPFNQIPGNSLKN
Opioid receptors; mu/kappa/delta (Homo sapiens), sequence (P35372 whole entry, looked up): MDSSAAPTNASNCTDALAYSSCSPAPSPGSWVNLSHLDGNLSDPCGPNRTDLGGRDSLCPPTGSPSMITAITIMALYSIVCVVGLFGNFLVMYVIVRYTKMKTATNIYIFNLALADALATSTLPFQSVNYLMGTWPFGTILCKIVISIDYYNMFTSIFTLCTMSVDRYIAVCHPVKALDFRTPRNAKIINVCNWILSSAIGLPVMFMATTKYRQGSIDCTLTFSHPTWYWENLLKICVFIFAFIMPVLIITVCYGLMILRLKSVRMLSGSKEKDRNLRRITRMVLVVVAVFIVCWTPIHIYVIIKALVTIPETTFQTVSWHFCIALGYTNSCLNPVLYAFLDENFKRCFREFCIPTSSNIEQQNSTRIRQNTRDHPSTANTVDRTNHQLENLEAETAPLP
Opioid receptors; mu/kappa/delta (Homo sapiens), sequence (P41143 whole entry, looked up): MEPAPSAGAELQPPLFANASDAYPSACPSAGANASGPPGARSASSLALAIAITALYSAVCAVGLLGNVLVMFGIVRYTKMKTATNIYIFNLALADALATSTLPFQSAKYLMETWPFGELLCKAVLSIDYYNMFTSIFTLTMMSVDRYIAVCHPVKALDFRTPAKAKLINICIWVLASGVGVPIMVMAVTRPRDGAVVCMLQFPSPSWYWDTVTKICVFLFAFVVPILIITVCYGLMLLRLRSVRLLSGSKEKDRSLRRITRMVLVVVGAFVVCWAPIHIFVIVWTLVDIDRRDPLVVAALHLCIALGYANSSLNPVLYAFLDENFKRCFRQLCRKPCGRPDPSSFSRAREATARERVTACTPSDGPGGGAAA
Opioid receptors; mu/kappa/delta (Homo sapiens), sequence (P41145 whole entry, looked up): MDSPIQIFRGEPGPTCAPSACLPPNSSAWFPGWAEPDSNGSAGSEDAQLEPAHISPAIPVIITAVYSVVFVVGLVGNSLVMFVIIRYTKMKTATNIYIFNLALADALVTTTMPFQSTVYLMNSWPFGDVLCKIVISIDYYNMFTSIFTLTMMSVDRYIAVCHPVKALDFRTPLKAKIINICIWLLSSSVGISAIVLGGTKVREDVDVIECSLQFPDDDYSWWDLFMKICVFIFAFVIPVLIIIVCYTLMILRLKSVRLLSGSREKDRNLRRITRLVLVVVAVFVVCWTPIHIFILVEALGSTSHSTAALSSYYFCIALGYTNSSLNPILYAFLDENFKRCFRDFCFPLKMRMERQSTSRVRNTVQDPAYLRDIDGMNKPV
Alpha-1A adrenergic receptor, sequence (P35348 whole entry): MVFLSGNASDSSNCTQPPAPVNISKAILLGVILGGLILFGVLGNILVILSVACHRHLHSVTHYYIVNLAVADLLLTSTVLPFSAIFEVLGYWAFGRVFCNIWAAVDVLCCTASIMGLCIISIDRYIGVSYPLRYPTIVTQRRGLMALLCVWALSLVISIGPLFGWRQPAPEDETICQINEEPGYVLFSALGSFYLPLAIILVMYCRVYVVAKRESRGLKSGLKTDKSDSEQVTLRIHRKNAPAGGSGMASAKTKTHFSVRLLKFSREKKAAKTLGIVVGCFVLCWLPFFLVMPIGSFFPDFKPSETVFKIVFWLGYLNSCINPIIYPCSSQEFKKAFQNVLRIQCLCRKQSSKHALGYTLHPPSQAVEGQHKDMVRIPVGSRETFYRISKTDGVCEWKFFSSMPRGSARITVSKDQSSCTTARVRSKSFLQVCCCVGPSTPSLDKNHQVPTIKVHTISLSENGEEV
5-hydroxytryptamine receptor 2A (Rattus norvegicus), sequence (P14842 whole entry): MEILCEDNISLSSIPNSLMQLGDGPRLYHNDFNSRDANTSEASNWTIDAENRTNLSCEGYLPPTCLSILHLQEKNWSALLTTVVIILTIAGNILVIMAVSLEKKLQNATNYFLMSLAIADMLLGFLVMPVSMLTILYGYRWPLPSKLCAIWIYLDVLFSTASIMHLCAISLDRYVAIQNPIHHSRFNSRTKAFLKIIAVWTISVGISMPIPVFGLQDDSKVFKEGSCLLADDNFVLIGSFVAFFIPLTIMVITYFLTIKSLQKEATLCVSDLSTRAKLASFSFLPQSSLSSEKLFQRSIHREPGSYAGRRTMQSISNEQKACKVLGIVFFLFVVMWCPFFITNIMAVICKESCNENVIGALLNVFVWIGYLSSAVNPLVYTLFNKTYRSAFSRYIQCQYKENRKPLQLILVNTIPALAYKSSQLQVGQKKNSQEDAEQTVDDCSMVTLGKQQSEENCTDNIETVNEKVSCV
5-hydroxytryptamine receptor 2A, sequence (P14842 whole entry): as above

C[C@H](N)Cn1ncc2ccc(O)cc21
inhibition [1]: 63.3% | Papp A→B [2]: 0.76 ×10⁻⁶ cm/s | inhibition [3]: 24.8% | inhibition [4]: 11.2% | pKi [5]: < 4.52 | inhibition [6]: 12% | inhibition [7]: -5.75% | inhibition [8]: 9.31% | inhibition [9]: 12.6% | pEC50 [10]: 5.59 | inhibition [11]: 7.43% | pKi [12]: 8.52 | inhibition [13]: -2.24% | inhibition [14]: 13.2% | Emax [15]: 81% | pEC50 [16]: 7.37 | inhibition [17]: -5.59% | inhibition at 10 µM [18]: 15.2% | inhibition [19]: 42.6%
